Assays:
[1] = target: Amyloid-beta precursor protein (Homo sapiens, UniProt P05067); assay: Competitive radioligand binding to pathological aggregated beta amyloid in AD tissue
[2] = target: Alpha-synuclein (Homo sapiens, UniProt P37840); assay: Alpha-Synuclein Tissue Homogenate Binding Assay
Description: For displacement α-synuclein binding assay, compounds and control were solvated in dimethyl sulfoxide (DMSO) and transferred using focused acoustic energy by an Echo 655 liquid handling instrument (Beckman Coulter, Indianapolis, IN) into designated wells of uniquely bar coded 96-well v-bottom low binding polypropylene microplates (Thermo Scientific, 249946). Compound dose response curves were prepared in a 10-point, 3-fold fashion within columns 2 -11 of the microplate from high to low compound concentrations. The final assay concentration of dose response curves when starting at 1 mM ranged from 1.2 µM to 0.061 nM (0.12 % DMSO final assay concentration, 270 nL/well). Controls included no inhibitor (DMSO only) dispensed into wells A1 – D1, A12 – D12 for minimum efficacy signal and Compound 1000 at a final assay concentration of 12 µM into wells E1 – H1, E12 – H12 for maximum efficacy signal. Liquid-handling steps for dispensing insoluble fractions of PD brain homogenates and 25666 radioligand were performed using a Bravo automated liquid handling platform equipped with a 96LT disposable tip head (Agilent Technologies, Santa Clara, CA). […] A clear adhesive seal (TopSeal-A PLUS, PerkinElmer 6050185) was then applied to the top of each microplate and counted 1 minute/well on MicroBeta2 system (PerkinElmer, Model: 2450-0120).

Sequence of Amyloid-beta precursor protein (P05067 whole entry): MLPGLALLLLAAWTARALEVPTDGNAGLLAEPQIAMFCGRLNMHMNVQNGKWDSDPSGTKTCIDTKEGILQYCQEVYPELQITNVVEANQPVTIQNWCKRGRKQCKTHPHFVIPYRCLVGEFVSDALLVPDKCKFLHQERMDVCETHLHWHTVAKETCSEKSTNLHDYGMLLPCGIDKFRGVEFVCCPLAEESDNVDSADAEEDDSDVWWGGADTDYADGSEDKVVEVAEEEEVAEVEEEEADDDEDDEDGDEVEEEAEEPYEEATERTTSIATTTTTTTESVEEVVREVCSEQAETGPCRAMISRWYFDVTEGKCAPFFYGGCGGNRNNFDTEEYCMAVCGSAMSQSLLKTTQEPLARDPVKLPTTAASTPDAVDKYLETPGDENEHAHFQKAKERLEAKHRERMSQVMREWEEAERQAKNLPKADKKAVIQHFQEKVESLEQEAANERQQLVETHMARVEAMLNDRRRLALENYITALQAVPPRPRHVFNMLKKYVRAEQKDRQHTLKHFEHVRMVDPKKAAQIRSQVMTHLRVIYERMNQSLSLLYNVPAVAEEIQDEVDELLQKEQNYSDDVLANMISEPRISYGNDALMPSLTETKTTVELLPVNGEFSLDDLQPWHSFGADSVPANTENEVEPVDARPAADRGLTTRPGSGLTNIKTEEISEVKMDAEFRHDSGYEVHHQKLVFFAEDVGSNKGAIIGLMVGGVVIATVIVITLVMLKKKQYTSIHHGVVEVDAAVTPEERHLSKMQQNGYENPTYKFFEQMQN

Row | SMILES | Ki [1] | Ki [2]
1 | FCOC[C@H]1CN(c2ncc(/C=C/c3ccc(-n4ccnc4)nc3)cn2)CCN1c1ncccn1 [WO2024186584, Example 4] | 0.1 µM | 0.0012 µM
2 | COC[C@H]1CN(c2ncc(C#Cc3ccc(-n4ccnc4)nc3)cn2)CCN1c1cc(F)ncn1 [WO2024186584, Example 12] | 4 µM | 
3 | COC[C@H]1CN(c2cc(F)ccn2)CCN1c1ncc(/C=C/c2ccc(-n3ccnc3)nc2)cn1 [WO2024186584, Example 17] |  | 0.0009 µM
4 | COC[C@H]1CN(c2ncc(/C=C/c3ccc(-n4ccnc4)nc3)cn2)CCN1c1ncc(OCC(O)CF)cn1 (stereo partly drawn) [WO2024186584, Example 39] | 4 µM | 

Continued, in another order:

Row | Ki [1] | SMILES | Ki [2]
5 | 4 µM | FCCOC[C@H]1CN(c2ncc(/C=C/c3ccc(-n4ccnc4)nc3)cn2)CCN1c1ncccn1 [WO2024186584, Example 3] | 
6 | 4 µM | COC[C@H]1CN(c2ncccn2)CCN1c1ncc(/C=C/c2ccc(-n3ccnc3)nc2)cn1 [WO2024186584, Example 28] | 
7 | 4 µM | COC[C@H]1CN(c2ncc(/C=C/c3ccc(-n4ccnc4)nc3)cn2)CCN1c1ncc(OCCF)cn1 [WO2024186584, Example 35] | 

From BindingDB's records for patent WO2024186584 (8932 Hightail Drive, 2024)
